Experimental data reported in ChEMBL document CHEMBL1201862, “PubChem BioAssay data set” (2004).
Activity calls are given as the source filed them.

Key:
Aminopeptidase N = molecular target: T1, Aminopeptidase N (Plasmodium falciparum FcB1/Columbia, UniProt O96935); assay: malaria alanyl aminopeptidase activity blockers – biochemical, fluorogenic H-Leu-NHMec substrate, 1536-well (AID 1445); parameters: species or system Plasmodium falciparum 3D7, 3D7
T1 sequence (O96935 whole entry): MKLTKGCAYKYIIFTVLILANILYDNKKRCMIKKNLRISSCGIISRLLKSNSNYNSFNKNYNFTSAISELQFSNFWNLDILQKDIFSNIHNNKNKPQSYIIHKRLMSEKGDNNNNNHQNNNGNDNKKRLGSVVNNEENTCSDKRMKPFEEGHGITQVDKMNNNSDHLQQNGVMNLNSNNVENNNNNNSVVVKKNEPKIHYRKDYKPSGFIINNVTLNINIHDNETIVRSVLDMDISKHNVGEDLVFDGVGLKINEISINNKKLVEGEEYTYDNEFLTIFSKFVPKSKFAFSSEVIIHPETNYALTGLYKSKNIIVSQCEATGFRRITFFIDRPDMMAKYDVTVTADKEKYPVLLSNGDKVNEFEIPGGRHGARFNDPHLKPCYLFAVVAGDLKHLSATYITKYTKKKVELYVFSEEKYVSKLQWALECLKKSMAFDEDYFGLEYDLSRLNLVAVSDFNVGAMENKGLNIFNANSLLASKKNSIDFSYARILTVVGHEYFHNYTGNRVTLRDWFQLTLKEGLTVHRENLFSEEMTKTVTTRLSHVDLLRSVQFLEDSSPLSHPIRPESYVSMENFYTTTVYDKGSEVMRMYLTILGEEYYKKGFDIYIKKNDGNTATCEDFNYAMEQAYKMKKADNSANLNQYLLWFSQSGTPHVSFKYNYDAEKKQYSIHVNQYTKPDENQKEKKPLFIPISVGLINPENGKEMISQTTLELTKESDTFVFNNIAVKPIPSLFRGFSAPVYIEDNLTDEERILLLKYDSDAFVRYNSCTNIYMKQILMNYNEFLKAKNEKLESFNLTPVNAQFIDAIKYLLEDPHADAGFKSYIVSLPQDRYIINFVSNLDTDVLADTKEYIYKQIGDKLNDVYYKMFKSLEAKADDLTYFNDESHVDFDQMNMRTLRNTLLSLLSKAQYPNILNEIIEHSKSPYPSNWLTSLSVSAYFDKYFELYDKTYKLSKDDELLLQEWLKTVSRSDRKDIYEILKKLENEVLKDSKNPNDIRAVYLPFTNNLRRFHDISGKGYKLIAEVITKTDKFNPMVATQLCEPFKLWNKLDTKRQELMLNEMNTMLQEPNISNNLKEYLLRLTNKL

[1] = molecular target: T2, Probable nicotinate-nucleotide adenylyltransferase (Staphylococcus aureus (strain N315), UniProt P65502); format: functional, Staphylococcus aureus subsp. aureus N315;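 on IC50 Mean: confirmatory dose-response retesting of NadD inhibitor hits first found in an ultra-high-throughput screen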
[2] = molecular target: T2, Probable nicotinate-nucleotide adenylyltransferase; format: functional, Staphylococcus aureus subsp. aureus N315; settings: read-out: IC50_Mean
Cytochrome P450 2C19 = Cytochrome P450 2C19 (Homo sapiens, UniProt P33261); assay: Cytochrome panel assay with activity outcomes. Panel member name: p450-cyp2c19 Compounds with AC50 equal or less than 10 uM are considered active; format: functional
[3] = molecular target: T3, High affinity choline transporter 1 (Homo sapiens, UniProt Q9GZV3); assay: human choline transporter blockers, potency – cell-based, 5-point CRC, membrane potential dye, dose response (AID 504840); format: functional
T3 sequence (Q9GZV3 whole entry): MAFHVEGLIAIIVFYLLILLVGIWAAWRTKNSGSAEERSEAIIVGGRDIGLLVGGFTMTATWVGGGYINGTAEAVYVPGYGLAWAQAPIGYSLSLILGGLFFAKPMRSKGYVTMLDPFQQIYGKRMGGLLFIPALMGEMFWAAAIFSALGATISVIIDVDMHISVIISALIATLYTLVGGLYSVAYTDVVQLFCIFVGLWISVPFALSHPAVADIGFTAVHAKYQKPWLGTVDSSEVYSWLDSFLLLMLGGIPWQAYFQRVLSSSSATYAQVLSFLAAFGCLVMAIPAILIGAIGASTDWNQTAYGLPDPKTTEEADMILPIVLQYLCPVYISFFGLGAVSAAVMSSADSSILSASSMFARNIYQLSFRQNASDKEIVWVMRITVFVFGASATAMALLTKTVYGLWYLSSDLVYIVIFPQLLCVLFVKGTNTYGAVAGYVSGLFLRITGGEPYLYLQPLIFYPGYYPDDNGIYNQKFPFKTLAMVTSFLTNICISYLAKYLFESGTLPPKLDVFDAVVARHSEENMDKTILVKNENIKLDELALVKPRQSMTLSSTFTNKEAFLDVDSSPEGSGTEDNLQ

[4] = luciferase reporter signal suppression in cells – H4 neuroglioma cells, luminescence, dose response (AID 1990); format: functional, cell-based
[5] = Luminescence Cell-Based Dose Response HTS to Identify Inhibitors of 5'UTR Stem-Loop Driven Prion Protein mRNA Translation in H4 Neuroglioblastoma Cells. [Related pubchem assays: 1827 (Project Summary), 1813 (Primary HTS)]; format: functional
[6] = molecular target: T4, Heat shock factor protein 1 (Mus musculus, UniProt P38532); assay: decrease of HSF1-responsive luciferase luminescence – cell-based, NIH3T3, dose retest, confirmation (AID 2382); format: functional;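 further: NIH3T3 fibroblasts with HSF1-driven luciferase reporter stressed by proteasome inhibitor MG132; luminescence from HSF1-driven luciferase expression after 8 hours of MG132 stress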
T4 sequence (P38532 whole entry): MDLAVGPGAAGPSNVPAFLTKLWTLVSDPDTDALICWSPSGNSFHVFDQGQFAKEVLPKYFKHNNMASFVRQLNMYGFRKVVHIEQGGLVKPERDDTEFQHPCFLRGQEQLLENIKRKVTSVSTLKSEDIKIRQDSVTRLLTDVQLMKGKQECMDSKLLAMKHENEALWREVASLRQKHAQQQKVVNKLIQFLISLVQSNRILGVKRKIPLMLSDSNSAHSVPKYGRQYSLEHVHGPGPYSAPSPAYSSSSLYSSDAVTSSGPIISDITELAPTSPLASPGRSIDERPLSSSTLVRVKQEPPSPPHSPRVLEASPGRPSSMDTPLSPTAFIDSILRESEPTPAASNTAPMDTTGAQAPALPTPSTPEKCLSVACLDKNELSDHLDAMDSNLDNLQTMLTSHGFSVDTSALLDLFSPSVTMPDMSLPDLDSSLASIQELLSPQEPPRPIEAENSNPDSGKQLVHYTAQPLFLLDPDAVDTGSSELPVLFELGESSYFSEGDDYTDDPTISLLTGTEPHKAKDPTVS

[7] = alpha-synuclein stem-loop luciferase translation blockers – H4 neuroglioma cells, luminescence, confirmation (AID 1988); format: functional, cell-based
[8] = molecular target: Luciferin 4-monooxygenase (Photinus pyralis, UniProt P08659); assay: inhibition of purified Photinus pyralis luciferase – biochemical, luminescence, dose response (AID 1891)
[9] = Luminescence Cell-Based Dose Confirmation HTS to Identify Inhibitors of Platelet Dense Granule Release. [Related pubchem assays: 1663 (Primary HTS), 1678 (Summary of Project)]; format: functional
[10] = reduction of Shn3 3'UTR-driven luciferase in osteoblasts – cell-based, Clone20 osteoblasts, firefly luciferase, cherry-picked, dose response (AID 624132); format: functional;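 further: firefly luciferase luminescence from reporter carrying the Shn3 3'UTR in osteoblasts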
[11] = loss of viability in HepG2 cells – cell-based, CellTiter-Glo, cherry-picked, cytotoxicity control for Shn3 inhibitor project, dose response (AID 624134); format: functional
[12] = non-specific 3'UTR reporter inhibition in Clone20-Shn3RL – cell-based, Renilla luciferase, cherry-picked, counter-screen for Shn3 inhibitor project, dose response (AID 624133); format: functional
Protein skinhead-1 = molecular target: T5, Protein skinhead-1 (Caenorhabditis elegans, UniProt P34707); format: functional
T5 sequence (P34707 whole entry): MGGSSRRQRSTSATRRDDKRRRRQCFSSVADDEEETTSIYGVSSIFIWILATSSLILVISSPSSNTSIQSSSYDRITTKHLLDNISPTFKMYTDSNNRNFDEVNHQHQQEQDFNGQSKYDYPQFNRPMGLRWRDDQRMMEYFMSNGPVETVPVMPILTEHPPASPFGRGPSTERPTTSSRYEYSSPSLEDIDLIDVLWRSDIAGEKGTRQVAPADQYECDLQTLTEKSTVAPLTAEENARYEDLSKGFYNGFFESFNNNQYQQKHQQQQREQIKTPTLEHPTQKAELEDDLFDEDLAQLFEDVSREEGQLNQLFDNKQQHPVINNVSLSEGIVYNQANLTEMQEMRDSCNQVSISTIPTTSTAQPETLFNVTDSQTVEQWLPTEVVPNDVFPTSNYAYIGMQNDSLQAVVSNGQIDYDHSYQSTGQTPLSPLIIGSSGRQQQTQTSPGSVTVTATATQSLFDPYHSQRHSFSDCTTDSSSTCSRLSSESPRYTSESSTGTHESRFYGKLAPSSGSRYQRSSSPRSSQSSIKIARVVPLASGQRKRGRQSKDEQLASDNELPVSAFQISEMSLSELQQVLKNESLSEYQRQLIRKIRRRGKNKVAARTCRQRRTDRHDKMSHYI

[13] = microbe, parasite or virus in culture; format: functional; settings: Mycobacterium tuberculosis
H9c2 = assay: cells; format: functional, cell-based; settings: Rattus norvegicus, H9c2, Myocardium;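 further: confirmatory concentration-response retest of ultra-high-throughput screening hits for modulation of myocardial damage; cell death induced by hydrogen peroxide oxidative stress; compound pretreatment for 60 min then peroxide exposure for 2 h; potency is for protecting the cells against peroxide damage rather than for killing them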
Paired box protein Pax-8 = Paired box protein Pax-8 (Homo sapiens, UniProt Q06710); assay: PAX8 transcriptional activity inhibition in RMG-I – RMG-I cells, luciferase, cherry-pick, dose response (AID 687027); format: functional, cell-based;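 further: luciferase reporter driven by Pax8 target thyroperoxidase promoter measured by SteadyGlo luminescence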
Caspase-6 = molecular target: T6, Caspase-6 (Homo sapiens, UniProt P55212); assay: inhibition of CASP6 peptide cleavage – biochemical, VEID-R110 fluorescence, cherry-pick, dose response (AID 720632)
T6 sequence (P55212 whole entry): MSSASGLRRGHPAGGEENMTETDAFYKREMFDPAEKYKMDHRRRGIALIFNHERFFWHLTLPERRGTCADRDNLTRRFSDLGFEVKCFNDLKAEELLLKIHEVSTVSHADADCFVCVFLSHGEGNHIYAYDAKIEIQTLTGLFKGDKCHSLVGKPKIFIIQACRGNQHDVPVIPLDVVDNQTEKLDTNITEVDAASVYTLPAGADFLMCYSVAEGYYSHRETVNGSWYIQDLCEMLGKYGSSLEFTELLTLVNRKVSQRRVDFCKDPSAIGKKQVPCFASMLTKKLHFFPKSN

T2 sequence (P65502 whole entry): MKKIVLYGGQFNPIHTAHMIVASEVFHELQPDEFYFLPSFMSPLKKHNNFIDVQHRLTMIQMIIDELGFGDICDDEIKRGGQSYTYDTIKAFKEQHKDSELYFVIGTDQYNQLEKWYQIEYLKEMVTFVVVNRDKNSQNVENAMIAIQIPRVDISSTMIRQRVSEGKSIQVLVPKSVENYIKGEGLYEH
Chain of Luciferin 4-monooxygenase (P08659 whole entry): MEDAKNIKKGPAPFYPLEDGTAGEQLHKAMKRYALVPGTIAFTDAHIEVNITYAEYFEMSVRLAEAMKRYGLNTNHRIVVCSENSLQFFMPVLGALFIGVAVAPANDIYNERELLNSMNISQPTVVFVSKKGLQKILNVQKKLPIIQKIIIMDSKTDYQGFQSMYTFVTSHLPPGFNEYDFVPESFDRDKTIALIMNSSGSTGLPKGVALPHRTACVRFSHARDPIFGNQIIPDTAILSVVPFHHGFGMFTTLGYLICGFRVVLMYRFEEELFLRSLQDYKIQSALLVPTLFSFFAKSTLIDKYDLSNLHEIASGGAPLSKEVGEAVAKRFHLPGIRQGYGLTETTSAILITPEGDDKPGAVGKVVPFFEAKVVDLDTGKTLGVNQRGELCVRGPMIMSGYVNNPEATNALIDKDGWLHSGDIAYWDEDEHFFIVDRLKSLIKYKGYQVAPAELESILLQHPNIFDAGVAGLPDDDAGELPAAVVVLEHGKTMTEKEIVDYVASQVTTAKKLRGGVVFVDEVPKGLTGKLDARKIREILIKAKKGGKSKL
Chain of Cytochrome P450 2C19 (P33261 whole entry): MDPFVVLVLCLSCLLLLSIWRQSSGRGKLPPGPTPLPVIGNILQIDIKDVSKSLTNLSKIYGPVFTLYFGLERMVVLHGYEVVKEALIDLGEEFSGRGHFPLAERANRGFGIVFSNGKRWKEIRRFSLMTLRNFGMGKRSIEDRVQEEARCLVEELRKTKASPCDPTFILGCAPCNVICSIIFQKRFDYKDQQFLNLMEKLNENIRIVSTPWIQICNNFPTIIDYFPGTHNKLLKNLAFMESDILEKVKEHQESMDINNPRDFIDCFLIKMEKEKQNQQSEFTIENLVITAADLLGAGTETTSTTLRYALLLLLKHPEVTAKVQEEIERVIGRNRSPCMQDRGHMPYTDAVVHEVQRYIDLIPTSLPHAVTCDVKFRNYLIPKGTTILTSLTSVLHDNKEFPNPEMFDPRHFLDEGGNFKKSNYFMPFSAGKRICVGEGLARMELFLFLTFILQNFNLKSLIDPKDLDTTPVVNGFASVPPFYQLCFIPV
Chain of Paired box protein Pax-8 (Q06710 whole entry): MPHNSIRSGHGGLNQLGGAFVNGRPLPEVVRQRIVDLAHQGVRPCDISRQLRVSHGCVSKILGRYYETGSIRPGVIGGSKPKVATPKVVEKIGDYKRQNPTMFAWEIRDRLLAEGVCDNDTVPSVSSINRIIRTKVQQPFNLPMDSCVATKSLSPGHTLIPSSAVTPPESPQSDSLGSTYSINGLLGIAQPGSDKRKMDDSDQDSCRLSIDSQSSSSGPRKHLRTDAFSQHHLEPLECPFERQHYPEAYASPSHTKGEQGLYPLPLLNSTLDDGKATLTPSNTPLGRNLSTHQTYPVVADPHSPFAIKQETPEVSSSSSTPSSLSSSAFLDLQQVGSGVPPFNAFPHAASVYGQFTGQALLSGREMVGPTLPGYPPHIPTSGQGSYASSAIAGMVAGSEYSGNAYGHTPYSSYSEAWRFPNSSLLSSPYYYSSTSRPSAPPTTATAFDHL

For Cc1ccc(S(=O)(=O)N(NC2=NS(=O)(=O)c3ccccc32)C(=O)c2ccccc2)cc1, which IC50 (Aminopeptidase N) is on record?
Its IC50 is 46.8 µM (active).

What does the source list for O=C(COC(=O)c1ccc(Oc2ccccc2)cc1)Nc1nnc(-c2ccccc2)o1?
IC50 [1]: 9.58 µM (active); IC50 [2]: 23.8 µM (active)

For Cc1ccc(C)c(NC(=O)C(OC(=O)c2ccc(NC(=O)CC#N)cc2)c2ccccc2)c1 (configuration not stated), which IC50 [1] is on record?
The IC50 was 11.4 µM (active).

And the IC50 [2]?
The IC50 was 42.7 µM (active).

With CCOc1nc(N=C(N)N)nc2c(C)cccc12 as the compound, how does the IC50 (Aminopeptidase N) read?
Its IC50 is 7.38 µM (active).

What about the AC50 (Cytochrome P450 2C19) of the same compound?
The AC50 was “inconclusive”.

Which IC50 [3] does the source give for c1ccc(CCCCN2C(Nc3ccccc3)=NC[C@@H]2Cc2ccccc2)cc1 here?
The IC50 was 12 µM (active).

With C[n+]1ccccc1COc1ccc(C(C)(C)C)cc1 as the compound, how does the IC50 [3] read?
Its IC50 is 13.8 µM (active).

With CCC(C)(C)n1nnnc1C(c1ccc2ncccc2c1)N1CCN(c2nc3ccccc3s2)CC1 (configuration not stated) as the compound, how does the IC50 (Aminopeptidase N) read?
Its IC50 is 51.1 µM (active).

For CCc1cc(=O)oc2c(CN3CCN(C)CC3)c(O)c(Cl)cc12, which IC50 (Aminopeptidase N) is on record?
The IC50 was 35.9 µM (active).

Which EC50 [4] does the source give for COc1ccc2c(c1)sc1nc(-c3ccccc3)cn12 here?
The EC50 was 0.681 µM (active).

And the EC50 [5]?
The EC50 was 0.388 µM (active).

What about the EC50 [6] of the same compound?
Its EC50 is 2.23 µM (active).

What about the EC50 [7] of the same compound?
Its EC50 is 0.299 µM (active).

And the EC50 [8]?
The EC50 was 0.669 µM (active).

What about the EC50 [9] of the same compound?
The EC50 was 4.62 µM (active).

And the AC50 [10]?
Its AC50 is 7.37 µM (active).

What about the AC50 [11] of the same compound?
Its AC50 is 42.3 µM (active).

What about the AC50 [12] of the same compound?
Its AC50 is 13.2 µM (active).

And the IC50 (Protein skinhead-1)?
Its IC50 is > 100 µM (inactive).

With Cc1ccc(F)cc1CNC(=O)c1cc(COc2ccc3ncccc3c2)on1 as the compound, how does the CC50 [13] read?
Its CC50 is > 40 µM (active).

What about the AC50 [10] of the same compound?
The AC50 was 4.88 µM (active).

And the AC50 [11]?
The AC50 was 6.33 µM (active).

And the AC50 [12]?
Its AC50 is 4.3 µM (active).

With CN(C)C(=O)c1ccc(-c2nnc(O)c3ccccc23)cc1 as the compound, how does the IC50 (H9c2) read?
The IC50 was > 79 µM (inactive).

Which IC50 [3] does the source give for COc1ccc(C(C(=O)NC2CCCCC2)N(C(=O)c2ccco2)c2ccccc2C(C)=O)cc1OC (configuration not stated) here?
The IC50 was 2 µM (active).

Which IC50 (H9c2) does the source give for CC(=O)c1cccc(-c2cnc3c(NC=O)cc(-c4cccc(C(=O)N(C)C)c4)cn23)c1 here?
The IC50 was > 79 µM (inactive).

Which IC50 [3] does the source give for CC1CCCCN1CCNC(=O)CN1C(=O)CSc2ccc(S(=O)(=O)N3CCCCC3)cc21 (configuration not stated) here?
The IC50 was 12.9 µM (active).

For COc1ccc(-c2cnc3c(NC=O)cc(-c4cccc(NS(C)(=O)=O)c4)cn23)cc1OC, which IC50 (H9c2) is on record?
Its IC50 is > 79 µM (inactive).

And the AC50 (Paired box protein Pax-8)?
Its AC50 is 5.09 µM (active).

Which AC50 (Caspase-6) does the source give for C/C(=N\Nc1ccc(C(=O)O)cc1)c1ccc(Br)cc1 here?
Its AC50 is 7.07 µM (active).

With COc1ccc2ccccc2c1/C=N/NC(=O)c1nnn(-c2nonc2N)c1C(C)C as the compound, how does the IC50 [1] read?
The IC50 was 38 µM (active).

And the IC50 [2]?
The IC50 was 78 µM (active).

What does the source list for CCc1cccc2c(/C=N/NC(=O)c3cccc(S(=O)(=O)Nc4ccccc4Cl)c3)c[nH]c12?
IC50 [1]: 11.2 µM (active); IC50 [2]: 31.2 µM (active)

For Cn1/c(=N/CC(O)COc2ccccc2)sc2ccccc21 (configuration not stated), which IC50 [3] is on record?
Its IC50 is 13.5 µM (active).
